One assay has as its target PASK (human) (UniProt Q96RG2). Description: radiometric filter-binding kinase assay, Kinase HotSpot. Conditions: compound 0.5 µM; ATP 10 µM.
Sequence of TTK (human) (P33981 whole entry, looked up): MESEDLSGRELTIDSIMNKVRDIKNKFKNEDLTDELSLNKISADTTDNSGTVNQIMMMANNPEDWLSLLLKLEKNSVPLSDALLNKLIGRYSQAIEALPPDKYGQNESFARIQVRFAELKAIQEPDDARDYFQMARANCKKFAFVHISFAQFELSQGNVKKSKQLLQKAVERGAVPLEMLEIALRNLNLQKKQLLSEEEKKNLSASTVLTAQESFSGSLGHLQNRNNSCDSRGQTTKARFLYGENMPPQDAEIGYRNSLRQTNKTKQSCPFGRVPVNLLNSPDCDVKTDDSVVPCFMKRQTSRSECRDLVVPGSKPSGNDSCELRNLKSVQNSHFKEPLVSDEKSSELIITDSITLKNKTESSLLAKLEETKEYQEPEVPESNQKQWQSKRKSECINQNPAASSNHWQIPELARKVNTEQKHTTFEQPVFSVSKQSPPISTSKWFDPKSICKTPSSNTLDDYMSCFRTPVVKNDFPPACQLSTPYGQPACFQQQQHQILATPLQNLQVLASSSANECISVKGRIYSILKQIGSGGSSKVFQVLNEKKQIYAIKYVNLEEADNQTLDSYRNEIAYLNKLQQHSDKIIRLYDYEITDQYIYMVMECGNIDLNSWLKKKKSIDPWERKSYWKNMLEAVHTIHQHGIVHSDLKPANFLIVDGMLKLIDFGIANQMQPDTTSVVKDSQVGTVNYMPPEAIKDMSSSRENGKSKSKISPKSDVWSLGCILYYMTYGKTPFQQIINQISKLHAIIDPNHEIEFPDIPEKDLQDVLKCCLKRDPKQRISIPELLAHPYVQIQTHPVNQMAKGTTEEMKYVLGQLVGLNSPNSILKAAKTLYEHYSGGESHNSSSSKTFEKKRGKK
Sequence of CDK9 CCNK (human) (O75909 whole entry, looked up): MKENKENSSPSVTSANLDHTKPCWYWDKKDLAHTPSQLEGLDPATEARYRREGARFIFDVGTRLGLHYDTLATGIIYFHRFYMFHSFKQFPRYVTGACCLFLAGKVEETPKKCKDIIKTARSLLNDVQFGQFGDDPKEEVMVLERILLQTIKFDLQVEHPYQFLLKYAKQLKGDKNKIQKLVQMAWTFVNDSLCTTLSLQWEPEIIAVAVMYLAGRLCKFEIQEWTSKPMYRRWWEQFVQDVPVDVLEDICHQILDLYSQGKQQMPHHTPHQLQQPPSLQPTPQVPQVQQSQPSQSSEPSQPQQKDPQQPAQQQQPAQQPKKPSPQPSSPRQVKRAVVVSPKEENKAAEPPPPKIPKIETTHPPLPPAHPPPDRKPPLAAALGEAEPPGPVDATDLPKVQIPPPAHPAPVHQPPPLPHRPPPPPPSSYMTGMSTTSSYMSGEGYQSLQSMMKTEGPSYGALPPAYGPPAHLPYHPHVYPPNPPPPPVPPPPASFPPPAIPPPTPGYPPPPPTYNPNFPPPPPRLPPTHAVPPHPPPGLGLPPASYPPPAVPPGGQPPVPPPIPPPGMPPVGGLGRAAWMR
Sequence of CDK9 CCNK (human) (P50750 whole entry, looked up): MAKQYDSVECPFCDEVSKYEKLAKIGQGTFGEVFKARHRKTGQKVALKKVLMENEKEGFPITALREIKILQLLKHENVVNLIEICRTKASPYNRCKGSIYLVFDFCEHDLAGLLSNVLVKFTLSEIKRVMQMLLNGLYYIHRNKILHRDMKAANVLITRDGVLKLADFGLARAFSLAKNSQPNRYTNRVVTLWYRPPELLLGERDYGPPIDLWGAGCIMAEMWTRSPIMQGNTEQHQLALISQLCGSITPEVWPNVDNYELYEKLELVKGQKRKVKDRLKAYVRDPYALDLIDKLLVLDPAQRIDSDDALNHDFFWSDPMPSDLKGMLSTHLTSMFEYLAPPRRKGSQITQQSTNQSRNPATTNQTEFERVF
Sequence of STK16 (human) (O75716 whole entry, looked up): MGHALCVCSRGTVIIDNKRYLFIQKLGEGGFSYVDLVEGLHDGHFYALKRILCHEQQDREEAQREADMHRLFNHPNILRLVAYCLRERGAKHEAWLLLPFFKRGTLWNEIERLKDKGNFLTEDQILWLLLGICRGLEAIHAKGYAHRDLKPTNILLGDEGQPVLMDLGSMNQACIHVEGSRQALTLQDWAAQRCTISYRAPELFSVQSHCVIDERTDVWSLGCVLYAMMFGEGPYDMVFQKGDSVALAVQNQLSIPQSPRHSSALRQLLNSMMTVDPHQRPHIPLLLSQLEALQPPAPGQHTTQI
Sequence of TEC (human) (P42680 whole entry, looked up): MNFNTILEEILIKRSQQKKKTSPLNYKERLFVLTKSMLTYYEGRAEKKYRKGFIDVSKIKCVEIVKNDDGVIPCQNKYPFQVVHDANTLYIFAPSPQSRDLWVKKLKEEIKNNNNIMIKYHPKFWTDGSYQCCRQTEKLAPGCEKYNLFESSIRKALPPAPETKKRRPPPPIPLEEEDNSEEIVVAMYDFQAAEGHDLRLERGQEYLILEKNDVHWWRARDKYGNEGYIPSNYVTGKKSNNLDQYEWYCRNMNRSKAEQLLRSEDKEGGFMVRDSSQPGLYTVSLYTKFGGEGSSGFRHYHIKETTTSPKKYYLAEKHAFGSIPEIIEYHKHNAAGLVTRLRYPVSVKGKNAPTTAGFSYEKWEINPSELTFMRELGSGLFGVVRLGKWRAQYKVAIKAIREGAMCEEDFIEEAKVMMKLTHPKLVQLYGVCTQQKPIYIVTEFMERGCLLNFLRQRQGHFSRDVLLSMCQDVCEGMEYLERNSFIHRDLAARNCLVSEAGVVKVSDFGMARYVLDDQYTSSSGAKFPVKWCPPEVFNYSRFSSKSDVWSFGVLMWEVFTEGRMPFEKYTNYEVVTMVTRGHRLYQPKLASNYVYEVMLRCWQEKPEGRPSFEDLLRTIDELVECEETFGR
In the case of `O=C(CCCc1ccc(-c2ccccc2F)cc1)Nc1ccc(O)cc1`, the residual activity (usually the signal under treatment as a percentage of the control signal) came to 101%.
Still for that read-out and setting: the result for `CCN(CC)CCCCN1c2ccccc2Oc2ccc(Cl)cc21` reads 76.6%; that for `CC(=O)O/N=C1\C(=C2\C(=O)Nc3cc(Br)ccc32)Nc2ccccc21`, 86.2%.

A further assay concerns the target TTK (human) (UniProt P33981). The description is as above. As to conditions: compound 0.5 µM; ATP 10 µM.
Regarding `O=C(CCCc1ccc(-c2ccccc2F)cc1)Nc1ccc(O)cc1`, the residual activity is 89.5%.
On the same count and under the same terms, with `CCN(CC)CCCCN1c2ccccc2Oc2ccc(Cl)cc21` the figure was 104%; with `CC(=O)O/N=C1\C(=C2\C(=O)Nc3cc(Br)ccc32)Nc2ccccc21`, 93.9%.

The target in another assay is SRMS (human) (UniProt Q9H3Y6). The description is as above. Conditions: compound 0.5 µM; ATP 10 µM.
In the case of `O=C(CCCc1ccc(-c2ccccc2F)cc1)Nc1ccc(O)cc1`, the residual activity turned out to be 101%.
Still for that read-out and setting: with `CCN(CC)CCCCN1c2ccccc2Oc2ccc(Cl)cc21` the figure was 105%; with `CC(=O)O/N=C1\C(=C2\C(=O)Nc3cc(Br)ccc32)Nc2ccccc21`, 98%.

For the next assay, the target named is CAMK2A (human) (UniProt Q9UQM7). The description is as above. Conditions: compound 0.5 µM; ATP 10 µM.
`O=C(CCCc1ccc(-c2ccccc2F)cc1)Nc1ccc(O)cc1`: the residual activity was 116%.
In the case of `CCN(CC)CCCCN1c2ccccc2Oc2ccc(Cl)cc21`, the residual activity worked out at 104%.
Regarding `CC(=O)O/N=C1\C(=C2\C(=O)Nc3cc(Br)ccc32)Nc2ccccc21`, the residual activity is 89.2%.

The target in another assay is RPS6KA1 KD1 KD2 (human) (UniProt Q15418). The assay is described as above. Conditions: compound 0.5 µM; ATP 10 µM.
Sequence of RPS6KA1 KD1 KD2 (human) (Q15418 whole entry, looked up): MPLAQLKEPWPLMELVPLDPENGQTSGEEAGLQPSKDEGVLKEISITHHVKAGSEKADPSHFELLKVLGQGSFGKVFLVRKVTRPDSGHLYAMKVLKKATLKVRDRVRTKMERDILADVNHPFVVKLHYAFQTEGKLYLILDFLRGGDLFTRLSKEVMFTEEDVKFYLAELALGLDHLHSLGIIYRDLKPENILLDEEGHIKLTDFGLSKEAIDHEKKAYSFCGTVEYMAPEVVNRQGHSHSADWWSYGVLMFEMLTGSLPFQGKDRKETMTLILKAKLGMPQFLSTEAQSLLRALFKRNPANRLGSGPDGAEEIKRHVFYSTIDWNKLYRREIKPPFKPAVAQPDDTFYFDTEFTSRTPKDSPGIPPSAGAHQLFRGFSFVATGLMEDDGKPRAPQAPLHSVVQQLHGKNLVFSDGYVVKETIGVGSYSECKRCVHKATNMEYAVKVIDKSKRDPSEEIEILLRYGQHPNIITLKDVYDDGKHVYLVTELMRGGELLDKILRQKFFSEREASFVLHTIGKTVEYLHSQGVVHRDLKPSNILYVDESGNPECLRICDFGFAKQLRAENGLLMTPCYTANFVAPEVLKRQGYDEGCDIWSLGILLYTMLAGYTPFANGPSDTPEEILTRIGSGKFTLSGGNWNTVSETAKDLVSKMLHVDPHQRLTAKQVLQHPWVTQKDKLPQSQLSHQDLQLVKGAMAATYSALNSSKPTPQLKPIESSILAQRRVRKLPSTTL
For `O=C(CCCc1ccc(-c2ccccc2F)cc1)Nc1ccc(O)cc1`, the residual activity amounted to 102%.
On the same count and under the same terms, the result for `CCN(CC)CCCCN1c2ccccc2Oc2ccc(Cl)cc21` reads 97.5%.
Same read-out and setting: the result for `CC(=O)O/N=C1\C(=C2\C(=O)Nc3cc(Br)ccc32)Nc2ccccc21` reads 69%.

The target in a further assay is CAMK2B (human) (UniProt Q13554). The description is as above. Conditions: compound 0.5 µM; ATP 10 µM.
Sequence of CAMK2B (human) (Q13554 whole entry, looked up): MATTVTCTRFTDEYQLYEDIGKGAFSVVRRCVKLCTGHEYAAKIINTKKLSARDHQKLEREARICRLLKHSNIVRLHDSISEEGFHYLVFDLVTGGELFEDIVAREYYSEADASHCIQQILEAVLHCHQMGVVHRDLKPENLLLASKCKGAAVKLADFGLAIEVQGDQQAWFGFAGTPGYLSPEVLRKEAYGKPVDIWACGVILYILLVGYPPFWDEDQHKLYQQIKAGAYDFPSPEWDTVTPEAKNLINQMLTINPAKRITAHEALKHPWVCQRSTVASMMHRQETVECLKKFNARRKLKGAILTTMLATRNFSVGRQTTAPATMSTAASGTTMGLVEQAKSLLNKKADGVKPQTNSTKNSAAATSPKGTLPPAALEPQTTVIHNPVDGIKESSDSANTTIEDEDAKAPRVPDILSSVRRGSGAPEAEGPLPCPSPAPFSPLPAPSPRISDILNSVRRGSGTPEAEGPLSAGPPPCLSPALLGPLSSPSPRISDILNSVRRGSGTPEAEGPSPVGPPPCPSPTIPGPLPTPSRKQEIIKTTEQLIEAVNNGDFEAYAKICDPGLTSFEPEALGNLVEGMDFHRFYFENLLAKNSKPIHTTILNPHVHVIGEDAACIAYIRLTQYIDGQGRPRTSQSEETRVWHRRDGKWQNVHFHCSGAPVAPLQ
`O=C(CCCc1ccc(-c2ccccc2F)cc1)Nc1ccc(O)cc1`: the residual activity turned out to be 99.9%.
On to `CCN(CC)CCCCN1c2ccccc2Oc2ccc(Cl)cc21`, for which the residual activity amounted to 107%.
Still for that read-out and setting: with `CC(=O)O/N=C1\C(=C2\C(=O)Nc3cc(Br)ccc32)Nc2ccccc21` the figure was 91.5%.

A further assay addresses PTK2B (human) (UniProt Q14289). The assay is described as above. As to conditions: compound 0.5 µM; ATP 10 µM.
As for `O=C(CCCc1ccc(-c2ccccc2F)cc1)Nc1ccc(O)cc1`, the residual activity amounted to 98.8%.
Regarding `CCN(CC)CCCCN1c2ccccc2Oc2ccc(Cl)cc21`, the residual activity stood at 99.6%.
Turning to `CC(=O)O/N=C1\C(=C2\C(=O)Nc3cc(Br)ccc32)Nc2ccccc21`, the residual activity amounted to 85.9%.

The next assay concerns the target CDK9 CCNK (human) (UniProt O75909+P50750). The assay is described as above. Conditions: compound 0.5 µM; ATP 10 µM.
Regarding `O=C(CCCc1ccc(-c2ccccc2F)cc1)Nc1ccc(O)cc1`, the residual activity turned out to be 96.7%.
Regarding `CCN(CC)CCCCN1c2ccccc2Oc2ccc(Cl)cc21`, the residual activity was 105%.
Still for that read-out and setting: with `CC(=O)O/N=C1\C(=C2\C(=O)Nc3cc(Br)ccc32)Nc2ccccc21` the figure was 64.3%.

The next assay has as its target MAP4K4 (human) (UniProt O95819). The assay is described as above. Conditions: compound 0.5 µM; ATP 10 µM.
For the molecule `O=C(CCCc1ccc(-c2ccccc2F)cc1)Nc1ccc(O)cc1`, the residual activity worked out at 92.9%.
Turning to `CCN(CC)CCCCN1c2ccccc2Oc2ccc(Cl)cc21`, the residual activity was 104%.
The same measure, in the same setting: with `CC(=O)O/N=C1\C(=C2\C(=O)Nc3cc(Br)ccc32)Nc2ccccc21` the figure was 30.2%.

The next assay has as its target ULK1 (human) (UniProt O75385). The assay is described as above. As to conditions: compound 0.5 µM; ATP 10 µM.
On to `O=C(CCCc1ccc(-c2ccccc2F)cc1)Nc1ccc(O)cc1`, for which the residual activity worked out at 106%.
For `CCN(CC)CCCCN1c2ccccc2Oc2ccc(Cl)cc21`, the residual activity was 99.8%.
Regarding `CC(=O)O/N=C1\C(=C2\C(=O)Nc3cc(Br)ccc32)Nc2ccccc21`, the residual activity is 95.6%.

The target of the next assay is CDK4 CCND1 (human) (UniProt P24385+P11802). The assay is described as above. As to conditions: compound 0.5 µM; ATP 10 µM.
Sequence of CDK4 CCND1 (human) (P11802 whole entry, looked up): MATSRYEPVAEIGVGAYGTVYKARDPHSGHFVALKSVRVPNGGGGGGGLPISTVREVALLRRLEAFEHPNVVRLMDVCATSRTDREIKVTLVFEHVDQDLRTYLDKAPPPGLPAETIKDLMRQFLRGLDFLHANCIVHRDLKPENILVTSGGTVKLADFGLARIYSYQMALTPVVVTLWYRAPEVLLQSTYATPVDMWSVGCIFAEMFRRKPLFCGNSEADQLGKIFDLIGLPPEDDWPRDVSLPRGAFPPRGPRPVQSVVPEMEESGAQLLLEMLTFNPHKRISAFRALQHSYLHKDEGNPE
Sequence of CDK4 CCND1 (human) (P24385 whole entry, looked up): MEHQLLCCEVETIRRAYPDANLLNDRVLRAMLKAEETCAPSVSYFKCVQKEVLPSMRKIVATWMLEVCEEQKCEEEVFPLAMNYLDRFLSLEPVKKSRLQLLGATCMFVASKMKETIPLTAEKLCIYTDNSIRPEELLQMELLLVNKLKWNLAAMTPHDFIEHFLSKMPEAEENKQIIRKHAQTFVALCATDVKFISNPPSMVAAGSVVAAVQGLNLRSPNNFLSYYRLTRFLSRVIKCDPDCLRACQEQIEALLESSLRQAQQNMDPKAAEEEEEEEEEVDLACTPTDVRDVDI
With `O=C(CCCc1ccc(-c2ccccc2F)cc1)Nc1ccc(O)cc1`, the residual activity was determined as 102%.
Same read-out and setting: the result for `CCN(CC)CCCCN1c2ccccc2Oc2ccc(Cl)cc21` reads 107%; that for `CC(=O)O/N=C1\C(=C2\C(=O)Nc3cc(Br)ccc32)Nc2ccccc21`, 73.3%.

Another assay concerns the target STK16 (human) (UniProt O75716). The description is as above. Conditions: compound 0.5 µM; ATP 10 µM.
`O=C(CCCc1ccc(-c2ccccc2F)cc1)Nc1ccc(O)cc1`: the residual activity was found to be 111%.
As to `CCN(CC)CCCCN1c2ccccc2Oc2ccc(Cl)cc21`, the residual activity is 95.2%.
The same measure, in the same setting: with `CC(=O)O/N=C1\C(=C2\C(=O)Nc3cc(Br)ccc32)Nc2ccccc21` the figure was 76.5%.

Another assay deals with KDR (human) (UniProt P35968). Described as above. As to conditions: compound 0.5 µM; ATP 10 µM.
As to `O=C(CCCc1ccc(-c2ccccc2F)cc1)Nc1ccc(O)cc1`, the residual activity stood at 101%.
For `CCN(CC)CCCCN1c2ccccc2Oc2ccc(Cl)cc21`, the residual activity was determined as 93.7%.
The same measure, in the same setting: with `CC(=O)O/N=C1\C(=C2\C(=O)Nc3cc(Br)ccc32)Nc2ccccc21` the figure was 74.2%.

A further assay addresses INSR (human) (UniProt P06213). The description is as above. Conditions: compound 0.5 µM; ATP 10 µM.
Consider `O=C(CCCc1ccc(-c2ccccc2F)cc1)Nc1ccc(O)cc1`, for which the residual activity turned out to be 102%.
Still for that read-out and setting: the result for `CCN(CC)CCCCN1c2ccccc2Oc2ccc(Cl)cc21` reads 109%.
On the same count and under the same terms, the result for `CC(=O)O/N=C1\C(=C2\C(=O)Nc3cc(Br)ccc32)Nc2ccccc21` reads 94.8%.

A further assay has as its target TEC (human) (UniProt P42680). The description is as above. Conditions: compound 0.5 µM; ATP 10 µM.
`O=C(CCCc1ccc(-c2ccccc2F)cc1)Nc1ccc(O)cc1`: the residual activity was 86%.
Same read-out and setting: the result for `CCN(CC)CCCCN1c2ccccc2Oc2ccc(Cl)cc21` reads 157%; that for `CC(=O)O/N=C1\C(=C2\C(=O)Nc3cc(Br)ccc32)Nc2ccccc21`, 131%.

Another assay deals with TAOK1 (human) (UniProt Q7L7X3). Described as above. As to conditions: compound 0.5 µM; ATP 10 µM.
As to `O=C(CCCc1ccc(-c2ccccc2F)cc1)Nc1ccc(O)cc1`, the residual activity was 91.4%.
The same measure, in the same setting: the result for `CCN(CC)CCCCN1c2ccccc2Oc2ccc(Cl)cc21` reads 97.9%.
As for `CC(=O)O/N=C1\C(=C2\C(=O)Nc3cc(Br)ccc32)Nc2ccccc21`, the residual activity came out at 126%.

Another assay has as its target ROS1 (human) (UniProt P08922). The assay is described as above. As to conditions: compound 0.5 µM; ATP 10 µM.
Consider `O=C(CCCc1ccc(-c2ccccc2F)cc1)Nc1ccc(O)cc1`, for which the residual activity is 98.4%.
With `CCN(CC)CCCCN1c2ccccc2Oc2ccc(Cl)cc21`, the residual activity turned out to be 95.3%.
With `CC(=O)O/N=C1\C(=C2\C(=O)Nc3cc(Br)ccc32)Nc2ccccc21`, the residual activity came out at 105%.

The target of the next assay is FYN (human) (UniProt P06241). The description is as above. Conditions: compound 0.5 µM; ATP 10 µM.
`O=C(CCCc1ccc(-c2ccccc2F)cc1)Nc1ccc(O)cc1`: the residual activity came out at 94.7%.
In the case of `CCN(CC)CCCCN1c2ccccc2Oc2ccc(Cl)cc21`, the residual activity worked out at 107%.
Same read-out and setting: with `CC(=O)O/N=C1\C(=C2\C(=O)Nc3cc(Br)ccc32)Nc2ccccc21` the figure was 20.9%.

The target of the next assay is PTK2 (human) (UniProt Q05397). The description is as above. Conditions: compound 0.5 µM; ATP 10 µM.
For `O=C(CCCc1ccc(-c2ccccc2F)cc1)Nc1ccc(O)cc1`, the residual activity amounted to 102%.
Still for that read-out and setting: with `CCN(CC)CCCCN1c2ccccc2Oc2ccc(Cl)cc21` the figure was 108%.
Consider `CC(=O)O/N=C1\C(=C2\C(=O)Nc3cc(Br)ccc32)Nc2ccccc21`, for which the residual activity came out at 95.9%.

A further assay has as its target PDGFRB (human) (UniProt P09619). The assay is described as above. Conditions: compound 0.5 µM; ATP 10 µM.
Turning to `O=C(CCCc1ccc(-c2ccccc2F)cc1)Nc1ccc(O)cc1`, the residual activity came to 98.2%.
Turning to `CCN(CC)CCCCN1c2ccccc2Oc2ccc(Cl)cc21`, the residual activity was determined as 103%.
Take `CC(=O)O/N=C1\C(=C2\C(=O)Nc3cc(Br)ccc32)Nc2ccccc21`: the residual activity was 51.6%.

Another assay addresses JAK1 JH1 catalytic (human) (UniProt P23458). Described as above. As to conditions: compound 0.5 µM; ATP 10 µM.
With `O=C(CCCc1ccc(-c2ccccc2F)cc1)Nc1ccc(O)cc1`, the residual activity turned out to be 98.2%.
On the same count and under the same terms, with `CCN(CC)CCCCN1c2ccccc2Oc2ccc(Cl)cc21` the figure was 105%.
Same read-out and setting: the result for `CC(=O)O/N=C1\C(=C2\C(=O)Nc3cc(Br)ccc32)Nc2ccccc21` reads 104%.
